From patent US6355799B1, “Substituted benzene compounds, process for their preparation, and herbicidal and defoliant compositions containing them” (ISK Americas Incorporated, priority 1997, dated 2002)

Key:
Assay type in all cases: in vivo
[1] = tested on: redroot pigweed (Amaranthus retroflexus, AMARE); assay: Pre-emerge test, greenhouse herbicide activity screening; settings: pre-emerge, rated 14 days after application, 0 = no damage, 100 = complete death
Method in brief: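 Herbicidal damage is scored 0 (none) to 100 (complete plant death) two weeks after a simulated field spray. Rates span 15–1000 g ai/ha, delivered in acetone at 187 l/ha. For post-emergence treatments, plants have 2–3 leaves and the spray carries 0.25% v/v non-ionic surfactant.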

[2] = tested on: upland rice (Oryza sp., var. Tebonnet, RICE); assay: Post-emerge test, crop safety; settings: phytotoxicity rating 0-100 (0 no damage, 100 complete death), 14 days after application
Method in brief: (§1)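 Compounds in acetone were track-sprayed at 15-1000 g ai/ha (187 l/ha) on sandy loam pots: pre-emerge one day after seeding, post-emerge at 2-3 leaf stage with 0.25% v/v non-ionic surfactant. Phytotoxicity was rated 14 days later on a 0 (no damage) to 100 (complete death) scale.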

[3] = tested on: field corn (Zea mays L., var. Dekalb 535, CORN); assay: Post-emerge test, crop safety; settings: phytotoxicity rating 0-100 (0 no damage, 100 complete death), 14 days after application
Method in brief: as §1

[4] = tested on: upland rice (Oryza sp., var. Tebonnet, RICE); assay: Pre-emerge test, crop safety; settings: pre-emerge, rated 14 days after application, 0 = no damage, 100 = complete death
Method in brief: (§2)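 Plants grown in 10 cm pots of sandy loam mix received acetone-dissolved compounds through a moving flat-fan nozzle. Doses ranged from 15 to 1000 g ai/ha. Pre-emerge pots were seeded one day earlier, post-emerge pots 8–21 days earlier. Fourteen days on, each pot was graded 0–100 for damage.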

[5] = tested on: field corn (Zea mays L., var. Dekalb 535, CORN); assay: Pre-emerge test, crop safety; settings: pre-emerge, rated 14 days after application, 0 = no damage, 100 = complete death
Method in brief: as §2

[6] = tested on: ivyleaf morningglory (Ipomoea hederacea, IPOHE); assay: Pre-emerge test, greenhouse herbicide activity screening; settings: pre-emerge, rated 14 days after application, 0 = no damage, 100 = complete death
Method in brief: as §1

[7] = tested on: green foxtail (Setaria viridis, SETVI); assay: as above; settings: pre-emerge, rated 14 days after application, 0 = no damage, 100 = complete death
Method in brief: as §1

[8] = tested on: barnyardgrass (Echinochloa crus-galli, ECHCG); assay: as above; settings: pre-emerge, rated 14 days after application, 0 = no damage, 100 = complete death
Method in brief: as §1

[9] = tested on: johnsongrass (Sorghum halepense, SORHA); assay: as above; settings: pre-emerge, rated 14 days after application, 0 = no damage, 100 = complete death
Method in brief: as §1

[10] = tested on: lambsquarters (Chenopodium album, CHEAL); assay: as above; settings: pre-emerge, rated 14 days after application, 0 = no damage, 100 = complete death
Method in brief: as §1

[11] = tested on: sicklepod (Cassia obtusifolia, CASOB); assay: as above; settings: pre-emerge, rated 14 days after application, 0 = no damage, 100 = complete death
Method in brief: as §1

[12] = tested on: large crabgrass (Digitaria sanguinalis, DIGSA); assay: as above; settings: pre-emerge, rated 14 days after application, 0 = no damage, 100 = complete death
Method in brief: as §1

[13] = tested on: velvetleaf (Abutilon theophrasti, ABUTH); assay: as above; settings: pre-emerge, rated 14 days after application, 0 = no damage, 100 = complete death
Method in brief: as §1

[14] = tested on: ivyleaf morningglory (Ipomoea hederacea, IPOHE); assay: Post-emerge test, greenhouse herbicide activity screening; settings: phytotoxicity rating 0-100 (0 no damage, 100 complete death), 14 days after application
Method in brief: (§3)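 Compounds in acetone were track-sprayed at 15–1000 g ai/ha: pre-emergence onto soil sown the previous day, then top-watered to incorporate and later bottom-watered; post-emergence onto 2–3 leaf plants with 0.25% v/v surfactant, bottom-watered only. Ratings on a 0–100 phytotoxicity scale were taken at day 14.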

[15] = tested on: green foxtail (Setaria viridis, SETVI); assay: as above; settings: phytotoxicity rating 0-100 (0 no damage, 100 complete death), 14 days after application
Method in brief: as §3

[16] = tested on: barnyardgrass (Echinochloa crus-galli, ECHCG); assay: as above; settings: phytotoxicity rating 0-100 (0 no damage, 100 complete death), 14 days after application
Method in brief: as §3

[17] = tested on: johnsongrass (Sorghum halepense, SORHA); assay: as above; settings: phytotoxicity rating 0-100 (0 no damage, 100 complete death), 14 days after application
Method in brief: as §3

[18] = tested on: lambsquarters (Chenopodium album, CHEAL); assay: as above; settings: phytotoxicity rating 0-100 (0 no damage, 100 complete death), 14 days after application
Method in brief: as §3

[19] = tested on: redroot pigweed (Amaranthus retroflexus, AMARE); assay: as above; settings: phytotoxicity rating 0-100 (0 no damage, 100 complete death), 14 days after application
Method in brief: as §3

[20] = tested on: common ragweed (Ambrosia artemisizfolia L., AMBEL); assay: as above; settings: phytotoxicity rating 0-100 (0 no damage, 100 complete death), 14 days after application
Method in brief: as §3

[21] = tested on: sicklepod (Cassia obtusifolia, CASOB); assay: as above; settings: phytotoxicity rating 0-100 (0 no damage, 100 complete death), 14 days after application
Method in brief: as §3

[22] = tested on: large crabgrass (Digitaria sanguinalis, DIGSA); assay: as above; settings: phytotoxicity rating 0-100 (0 no damage, 100 complete death), 14 days after application
Method in brief: as §3

[23] = tested on: velvetleaf (Abutilon theophrasti, ABUTH); assay: as above; settings: phytotoxicity rating 0-100 (0 no damage, 100 complete death), 14 days after application
Method in brief: as §3

`CCn1c(C(F)(F)F)cc(=O)n(-c2c(F)cc(Cl)c(OC)c2N)c1=O` [Compound 1-15] was tested, and the “Pre-emerge Herbicidal Activity AMARE (phytotoxicity rating, scale 0-100)” value ([1]; 63 g ai/ha) was 0, the “Pre-emerge Herbicidal Activity AMARE (phytotoxicity rating, scale 0-100)” value ([1]; 250 g ai/ha) was 20 and the “Post-emerge Herbicidal Activity RICE (crop damage)” value ([2]; 63 g ai/ha) was 0. For the same molecule, the “Post-emerge Herbicidal Activity RICE (crop damage)” value ([2]; 250 g ai/ha) was 0, the “Post-emerge Herbicidal Activity CORN (crop damage)” value ([3]; 63 g ai/ha) was 0 and the “Post-emerge Herbicidal Activity CORN (crop damage)” value ([3]; 250 g ai/ha) was 0. For the same molecule, the “Pre-emerge crop damage RICE (phytotoxicity rating, scale 0-100)” value ([4]; 63 g ai/ha) was 10, the “Pre-emerge crop damage RICE (phytotoxicity rating, scale 0-100)” value ([4]; 250 g ai/ha) was 30 and the “Pre-emerge crop damage CORN (phytotoxicity rating, scale 0-100)” value ([5]; 63 g ai/ha) was 0. The “Pre-emerge crop damage CORN (phytotoxicity rating, scale 0-100)” value ([5]; 250 g ai/ha) was 0, the “Pre-emerge Herbicidal Activity IPOHE (phytotoxicity rating, scale 0-100)” value ([6]; 63 g ai/ha) was 0 and the “Pre-emerge Herbicidal Activity IPOHE (phytotoxicity rating, scale 0-100)” value ([6]; 250 g ai/ha) was 0. For the same molecule, the “Pre-emerge Herbicidal Activity SETVI (phytotoxicity rating, scale 0-100)” value ([7]; 63 g ai/ha) was 70, the “Pre-emerge Herbicidal Activity SETVI (phytotoxicity rating, scale 0-100)” value ([7]; 250 g ai/ha) was 80 and the “Pre-emerge Herbicidal Activity ECHCG (phytotoxicity rating, scale 0-100)” value ([8]; 63 g ai/ha) was 0. The “Pre-emerge Herbicidal Activity ECHCG (phytotoxicity rating, scale 0-100)” value ([8]; 250 g ai/ha) was 0, the “Pre-emerge Herbicidal Activity SORHA (phytotoxicity rating, scale 0-100)” value ([9]; 63 g ai/ha) was 0 and the “Pre-emerge Herbicidal Activity SORHA (phytotoxicity rating, scale 0-100)” value ([9]; 250 g ai/ha) was 20. The “Pre-emerge Herbicidal Activity CHEAL (phytotoxicity rating, scale 0-100)” value ([10]; 63 g ai/ha) was 40, the “Pre-emerge Herbicidal Activity CHEAL (phytotoxicity rating, scale 0-100)” value ([10]; 250 g ai/ha) was 50 and the “Pre-emerge Herbicidal Activity CASOB (phytotoxicity rating, scale 0-100)” value ([11]; 63 g ai/ha) was 0. For the same molecule, the “Pre-emerge Herbicidal Activity CASOB (phytotoxicity rating, scale 0-100)” value ([11]; 250 g ai/ha) was 0, the “Pre-emerge Herbicidal Activity DIGSA (phytotoxicity rating, scale 0-100)” value ([12]; 63 g ai/ha) was 0 and the “Pre-emerge Herbicidal Activity DIGSA (phytotoxicity rating, scale 0-100)” value ([12]; 250 g ai/ha) was 90. For the same molecule, the “Pre-emerge Herbicidal Activity ABUTH (phytotoxicity rating, scale 0-100)” value ([13]; 63 g ai/ha) was 20, the “Pre-emerge Herbicidal Activity ABUTH (phytotoxicity rating, scale 0-100)” value ([13]; 250 g ai/ha) was 90 and the “Post-emerge Herbicidal Activity IPOHE” value ([14]; 63 g ai/ha) was 0. For the same molecule, the “Post-emerge Herbicidal Activity IPOHE” value ([14]; 250 g ai/ha) was 40, the “Post-emerge Herbicidal Activity SETVI” value ([15]; 63 g ai/ha) was 0 and the “Post-emerge Herbicidal Activity SETVI” value ([15]; 250 g ai/ha) was 0. The “Post-emerge Herbicidal Activity ECHCG” value ([16]; 63 g ai/ha) was 0, the “Post-emerge Herbicidal Activity ECHCG” value ([16]; 250 g ai/ha) was 0 and the “Post-emerge Herbicidal Activity SORHA” value ([17]; 63 g ai/ha) was 0. For the same molecule, the “Post-emerge Herbicidal Activity SORHA” value ([17]; 250 g ai/ha) was 0, the “Post-emerge Herbicidal Activity CHEAL” value ([18]; 63 g ai/ha) was 0 and the “Post-emerge Herbicidal Activity CHEAL” value ([18]; 250 g ai/ha) was 20. For the same molecule, the “Post-emerge Herbicidal Activity AMARE” value ([19]; 63 g ai/ha) was 0, the “Post-emerge Herbicidal Activity AMARE” value ([19]; 250 g ai/ha) was 30 and the “Post-emerge Herbicidal Activity AMBEL” value ([20]; 63 g ai/ha) was 0. The “Post-emerge Herbicidal Activity AMBEL” value ([20]; 250 g ai/ha) was 0, the “Post-emerge Herbicidal Activity CASOB” value ([21]; 63 g ai/ha) was 0 and the “Post-emerge Herbicidal Activity CASOB” value ([21]; 250 g ai/ha) was 0. For the same molecule, the “Post-emerge Herbicidal Activity DIGSA” value ([22]; 63 g ai/ha) was 0, the “Post-emerge Herbicidal Activity DIGSA” value ([22]; 250 g ai/ha) was 0 and the “Post-emerge Herbicidal Activity ABUTH” value ([23]; 63 g ai/ha) was 30. The “Post-emerge Herbicidal Activity ABUTH” value ([23]; 250 g ai/ha) was 50.
